Reference: patent publication US20250144187A1, “COMBINATION OF HYDROLASES AND ANTI-MICROORGANISM DRUGS AND USES THEREOF” (CENTRE FOR EYE AND VISION RESEARCH LIMITED, priority 2023, published 2025)

What was measured:
[1] = test system: MRSA; experiment: High-throughput screening of 4989 compounds with human lysozyme; type: cell-based, Staphylococcus aureus; settings: for MRSA Inhibition ratio (%): compound 2.5 μM + 1 mg/ml lysozyme relative to compound only
Description: 1) High-throughput screening. […] Specifically, these compounds were added into bacterial suspensions (1×10^6 CFU/ml) in the […] microliter plate, in which each well contained 50 μl of lysogeny broth (LB) medium with or without 1 mg/ml lysozyme. LB medium in the absence of bacteria served as background group. Then, the real-time growth curves of MRSA were monitored per hour and for 24 hours. Experiments were performed with the biological replicates. Fly analyzing the absorbance 600 nm (OD600) of bacterial culture at the time point of 24-hour, the inhibition ratio (%) was calculated according to (ODcontrol−ODsample)/(ODcontrol−ODbackground)×100%. Here, the relative and apparent inhibition ratios were figured out by using the absorbance of bacterial suspension only containing compound and that without any drug treatment as ODcontrol, respectively. The relative and apparent inhibition ratios indicated the combination effect and potential toxicity of compound in combination effect. Synergy effect was defined as the relative inhibition ratio of ≥90%.

[2] = test system: MRSA and MRSE; experiment: Resistance development studies (serial passages), tedizolid phosphate/lysozyme; type: cell-based; settings: after 12-day serial passages
Description: 5) Resistance development studies. […] H et al., Nat Commun. 11, 5263 (2020)], MRSA at exponential phase was diluted (1:1000) into fresh LB medium containing different concentrations of tedizolid phosphate, lysozyme alone or their combination. After cultured at 37° C. for 24 hours, the MIC of culture was determined by standard two-fold serial dilutions in 96-well microtiter plates. […] . All assays were performed in triplicate.

[3] = test system: MRSA in ARPE-19 cells; experiment: Cell infection model, tedizolid phosphate/lysozyme
[4] = test system: MRSA; experiment: ATP, NAD+/NADH and pyruvate levels, tedizolid phosphate/lysozyme; type: cell-based, Staphylococcus aureus; settings: combination therapy for 1 hour
Description: 13) ATP, NAD^+/NADH and pyruvate levels. According to the described method [Liu. Y et al., Adv. Sci. 7, 1902227(2020)], mid-log-phase MRSA with the OD600 of 0.4 to 0.6 was treated with lysozyme, tedizolid phosphate or their combination at different concentrations. Those without any treatment served as control group. After 1 hour incubation at 37° C. all bacteria we collected and then washed by cold PBS for 3 times. […] Then, 75 μl of each supernatant was incubated 25 μl of reaction I, followed by continuous incubation with 125 μl of reaction II. By recording the absorbance at 520 mu, the pyruvate level in each sample was figured out according to the standard formula. The intensity in control group was defined as 100% and others were normalized.
Then, 20 si of each supernatant was added white 96-well plate pre-reactivated by 100 μl of ATP test solution (Beyotime Biotechnology, China), followed by luminometer measurement [Liu, Y et al., Adv. Sci 7, 1902227 (2020)]. To analyze the intracellular NAD^+ and NADH levels [Xue, C et al., Front. Pharmacol. 12, 600296 (2021)], each lysis supernatant was divided into two tubes. One tube was heated at 60° C. for 30 minutes in PCR machine to decompose NAD^+ if had. Then, this tube was further centrifuged at 18,000 g at 4° C. for 20 minutes to collect the supernatant. After that, 20 μl of supernatant from heated or unheated group was added white 96-well plate pre-reactivated by 90 μl/well of alcohol dehydrogenase solution (Beyotime Biotechnology, China) for 10 minutes incubation at 37° C. in the prevention of light, Next, 10 μl of staining solution (Beyotime Biotechnology, China) was added to react with product in previous reaction. After 30 minutes at 37° C. in the prevention of light, orange formazan was observed and then the absorbance at 450 nm was recorded. Intensities of those […] heat treatment indicated the levels of NADH+NAD^+ and NADH itself, respectively. Finally, according to the standard formula, the intracellular levels of NAD^+, NADH and their ratio were figured out. All results were expressed as average±SD. […]

[5] = test system: MRSA and MRSE biofilm; experiment: Biofilm crystal violet assay, tedizolid phosphate/lysozyme; type: cell-based; settings: tedizolid phosphate + 0.5 mg/ml lysozyme
Description: 4) Biofilm assays. According to previously described method [Thappeta, K. R. et al., ACS Infect. Dis. 6, 1228-1237(2020); Merritt, J. H. et al., Curr. Protoc. Microbiol. Chapter 1, Unit 1B.1 (2005); O'Toole, G. A. et al., J, Vis. Exp. 47, 2437 (2011)], biofilm was assessed by using an adherence assay on 96-well tissue culture plates. Briefly, tedizolid phosphate at final concentration of 0.3 μg/ml was added into bacterial suspensions (1×10^6 CFU/ml, in LB medium) in the absence or presence of 0.5 mg/ml lysozyme. LB medium with or without bacteria served as positive or negative control group, respectively. After overnight incubation at 37° C., the bacterial suspension was removed, and well was gently washed twice with sterile PBS to remove exclusively non-adherent bacteria. The adherent biofilm was fixed by using 95% methanol at 60° C. for 15 minutes. Then, biofilm was stained with 1% Crystal violet (100 μl/well) at 37° C. for 15 minutes, Ater that, all wells were gently washed with PBS to remove redundant crystal violet. Finally, the dye was solubilized with […] of 95% ethanol per well at 37° C. for 3 minutes. The optical density at 590 nm of solution in each well was measured using a micro-plate reader. Herein, strong biofilm, weak biofilm and no biofilm were defined as “[…]”, “ODnegative control<ODsample<2ODnegative control” and “ODsample≤ODnegative control”. […]

[6] = test system: ocular bacterial communities in tears; experiment: Microbiome assay (16S rRNA) in ocular infection model; type: in vivo, C57BL/6 mice; settings: combination therapy; infected untreated ~3%, healthy 0.052%

C=CC1=C(C(=O)O)N2C(=O)[C@@H](NC(=O)/C(=N\O)c3csc(N)n3)[C@H]2SC1 [cefdinir, Cefdinir]
MRSA Combination ([1]; OD600 at 24-hour, compound 2.5 μM + 1 mg/ml lysozyme): 0.0564 | MRSA Drug only ([1]; OD600 at 24-hour, compound 2.5 μM without lysozyme): 0.6975 | MRSA Inhibition ratio (%) [1]: above 90% | MRSA Inhibition ratio (%) ([1]; listed as Ce ? dinir): 99.16%

Cn1nnc(-c2ccc(-c3ccc(N4C[C@H](COP(=O)(O)O)OC4=O)cc3F)cn2)n1 [tedizolid phosphate, Tedizolid Phosphate]
changes in the MIC level of tedizolid phosphate ([2]; combination therapy with lysozyme): remained unchanged | changes in the MIC level of tedizolid phosphate ([2]; tedizolid phosphate alone): 30 fold | death of infected ARPE-19 cells ([3]; 1.0 μg/ml tedizolid phosphate + 0.5 mg/ml lysozyme, MOI 10): cell death was prevented | bacterial load in ARPE-19 cells ([3]; ≥1.0 μg/ml tedizolid phosphate in the presence of 0.5 mg/ml lysozyme, reduced from 10^7): 10^4 CFU/ml | decrease in the level of pyruvate [4]: > 40% | level of ATP [4]: higher levels of ATP | ratio of NAD+/NADH ([4]; increased from 8.84±1.89): 18.43±4.42 | biofilm formation (absorbance at 590 nm), pre-biofilm stage [5]: biofilm was eliminated | proportion of Staphylococcus in tear bacterial communities [6]: ~0.078%
